Where a name gives a salt, the structure may show the parent alone. Read-outs that look alike come from different tables or passages of the source.
How the values were obtained:
Human 5-HT6 Receptor = molecular target: T1, Human 5-HT6 Receptor (Homo sapiens, UniProt P50406); assay: Binding assay for human 5-HT6 receptor ([3H]LSD radioligand)
T1 construct: expressed in transfected cells; host or cells: HEK293
Method: Compounds can be tested according to the following the procedures.
Receptor source: Human recombinant expressed in HEK293 cells
Radioligand [^3H]LSD (60-80 Ci/mmol)
Non-specific determinant: Methiothepin mesylate—[0.1 μM]
Reference compound: Methiothepin mesylate
Positive control: Methiothepin mesylate
Reactions were carried out in […] TRIS-HCl (pH 7.4) containing 10 μM MgCl2, 0.5 mM EDTA for 60 minutes at 37° C. The reaction was terminated by rapid vacuum filtration onto glass fiber filters. Radioactivity trapped onto the filters was determined and compared to control values in order to ascertain any interactions of test compound(s) with the cloned serotonin 5-HT6 binding site.
Literature Reference: Monsma F. J. Jr., et al., Molecular Cloning and Expression of Novel Serotonin Receptor with High Affinity for Tricyclic Psychotropic Drugs.

[1] = tested on: animal models for schizophrenia; details: literature (Pouzet et al. 2002); cited from earlier work
5-HT6 receptor = details: literature; cited from earlier work
[2] = human recombinant receptor in HEK293 cells, [3H]LSD 1.5 nM, 60 minutes at 37° C., read-out: Radio-ligand binding data at 5-HT6 (h) Ki

T1 sequence (P50406 whole entry): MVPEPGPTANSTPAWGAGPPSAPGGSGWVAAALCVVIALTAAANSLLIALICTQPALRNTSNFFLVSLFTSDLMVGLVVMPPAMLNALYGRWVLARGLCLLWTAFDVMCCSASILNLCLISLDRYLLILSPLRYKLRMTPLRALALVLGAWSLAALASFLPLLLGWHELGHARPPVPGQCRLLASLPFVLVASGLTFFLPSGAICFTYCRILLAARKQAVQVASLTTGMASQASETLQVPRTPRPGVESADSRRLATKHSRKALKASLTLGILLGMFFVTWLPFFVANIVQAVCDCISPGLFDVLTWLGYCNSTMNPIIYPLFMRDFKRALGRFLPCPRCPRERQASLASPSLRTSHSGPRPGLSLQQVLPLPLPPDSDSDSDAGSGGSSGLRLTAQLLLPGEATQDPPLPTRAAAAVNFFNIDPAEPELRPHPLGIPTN

SMILES | Ki (Human 5-HT6 Receptor; [2]) | melting point | other results
CN1CCN(Cc2ccc3c(ccn3S(=O)(=O)c3cccc(Cl)c3Cl)c2)CC1 [Compound 21, 1-(2,3-Dichlorobenzenesulfonyl)-5-(4-methylpiperazin-1-ylmethyl)-1H-indole] | 18 nM |  | 
CCN1CCN(Cc2ccc3c(ccn3S(=O)(=O)c3ccc(Br)cc3)c2)CC1.Cl.Cl |  | 264.5 to 267 °C | 
COc1ccc(NS(=O)(=O)c2sc3ccc(Cl)cc3c2C)cc1N1CCNCC1 [SB-271046, 5-Chloro-N-(4-methoxy-3-piperazin-1-ylphenyl)-3-methyl-2-benzothiophenesulfonamide] |  |  | activity in animal tests related to positive or negative symptoms of schizophrenia [1]: inactive
CN1CCN(Cc2ccc3c(ccn3S(=O)(=O)c3ccccc3)c2)CC1.Cl.Cl [Compound 1, 1-Benzenesulfonyl-5-(4-methylpiperazin-1-ylmethyl)-1H-indole dihydrochloride] | 3.83 nM | 266 to 270.5 °C | 
CCN1CCN(Cc2ccc3c(ccn3S(=O)(=O)c3ccc(Cl)cc3)c2)CC1.Cl.Cl |  | 265 to 269 °C | 
Cl.Cl.O=S(=O)(c1ccc(F)cc1)n1cc(Cl)c2cc(CN3CCNCC3)ccc21 [Compound 30, 1-(4-Fluorobenzenesulfonyl)-3-chloro-5-(piperazin-1-ylmethyl)-1H-indole dihydrochloride] | 2.58 nM | 254 to 259.6 °C | 
CN1CCN(Cc2ccc3c(ccn3S(=O)(=O)c3ccc(Cl)cc3)c2)CC1 [Compound 22, 1-(4-Chlorobenzenesulfonyl)-5-(4-methylpiperazin-1-ylmethyl)-1H-indole] | 3.02 nM |  | 
CN1CCN(Cc2ccc3c(ccn3S(=O)(=O)c3cc(C(F)(F)F)ccc3Cl)c2)CC1 [Compound 19, 1-(2-Chloro-5-trifluoromethylbenzenesulfonyl)-5-(4-methylpiperazin-1-ylmethyl)-1H-indole] | 11.3 nM |  | 
CCN1CCN(Cc2ccc3c(ccn3S(=O)(=O)c3ccc(F)cc3)c2)CC1.Cl.Cl [Compound 7, 1-(4-Fluorobenzenesulfonyl)-5-(4-ethylpiperazin-1-ylmethyl)-1H-indole dihydrochloride] | 3.21 nM | 265 to 270 °C | 
CCN1CCN(Cc2ccc3c(ccn3S(=O)(=O)c3cccc(C(F)(F)F)c3)c2)CC1.Cl.Cl |  | 265 to 270 °C | 
CN1CCN(Cc2ccc3c(c2)c(Cl)cn3S(=O)(=O)c2cc(C(F)(F)F)ccc2Cl)CC1 (as salt: hydrochloride) [Compound 27, 1-(2-Chloro-5-trifluoromethylbenznesulfonyl)-3-chloro-5-(4-methylpiperazin-1-ylmethyl)-1H-indole dihydrochloride] |  | 287 to 290 °C | 
CN1CCN(Cc2ccc3c(c2)c(Cl)cn3S(=O)(=O)c2ccc(Cl)cc2)CC1 [Compound 24, 1-(4-Chlorobenzenesulfonyl)-3-chloro-5-(4-methylpiperazin-1-ylmethyl)-1H-indole] |  | 139.2 to 140.4 °C | 
CCN1CCN(Cc2ccc3c(ccn3S(=O)(=O)c3ccc(C)cc3)c2)CC1.Cl.Cl |  | 263 to 267 °C | 
CN1CCN(Cc2ccc3c(c2)c(Cl)cn3S(=O)(=O)c2ccc(F)cc2)CC1 [Compound 25, 1-(4-Fluorobenzenesulfonyl)-3-chloro-5-(4-methylpiperazin-1-ylmethyl)-1H-indole] | 2.97 nM | 118.8 to 120.1 °C | 
CCN1CCN(Cc2ccc3c(ccn3S(=O)(=O)c3ccccc3)c2)CC1.Cl.Cl |  | 266 to 270.5 °C | 
Cl.Cl.O=S(=O)(c1ccccc1)n1ccc2cc(CN3CCNCC3)ccc21 [Compound 33, 1-(Benzenesulfonyl)-5-(piperazin-1-ylmethyl)-1H-indole dihydrochloride] | 2.52 nM | 250.4 to 256.2 °C | 

SMILES | Ki (Human 5-HT6 Receptor; [2]) | melting point | other results
CCN1CCN(Cc2ccc3c(ccn3S(=O)(=O)c3ccccc3Br)c2)CC1.Cl.Cl [Compound 15, 1-(2-Bromobenzenesulfonyl)-5-(4-ethylpiperazin-1-ylmethyl)-1H-indole dihydrochloride] | 2.56 nM | 255.5 to 259 °C | 
CN1CCN(Cc2ccc3c(c2)c(Cl)cn3S(=O)(=O)c2cc(C(F)(F)F)ccc2Cl)CC1 [Compound 27, 1-(2-Chloro-5-trifluoromethylbenznesulfonyl)-3-chloro-5-(4-methylpiperazin-1-ylmethyl)-1H-indole dihydrochloride] | 4.16 nM |  | 
CN1CCN(Cc2ccc3c(ccn3S(=O)(=O)c3ccccc3Br)c2)CC1 [Compound 20, 1-(2-Bromobenzenesulfonyl)-5-(4-methylpiperazin-1-ylmethyl)-1H-indole] | 8.3 nM |  | 
CCN1CCN(Cc2ccc3c(ccn3S(=O)(=O)c3ccc(C(C)C)cc3)c2)CC1.Cl.Cl [Compound 8, 1-[4-{1-Methylethyl)benzenesulfonyl]-5-(4-ethylpiperazin-1-ylmethyl)-1H-indole dihydrochloride] | 5.81 nM | 258 to 261 °C | 
CN1CCN2c3ccccc3Cc3ccccc3C2C1 (stereo not drawn) [mianserin] |  |  | affinity for the 5-HT6 receptor (5-HT6 receptor): high affinity
CC(C)c1ccc(S(=O)(=O)n2ccc3cc(CN4CCN(C)CC4)ccc32)cc1 [Compound 5, 1-[4-(1-Methylethyl)benzenesulfonyl]-5-(4-methylpiperazin-1-ylmethyl)-1H-indole] | 17.9 nM |  | 
CCN1CCN(Cc2ccc3c(ccn3S(=O)(=O)c3ccc(OC)cc3)c2)CC1.Cl.Cl |  | 254 to 258 °C | 
CCN1CCN(Cc2ccc3c(ccn3S(=O)(=O)c3ccc(F)cc3F)c2)CC1.Cl.Cl [Compound 10, 1-(2,4-Difluorobenzenesulfonyl)-5-(4-ethylpiperazin-1-ylmethyl)-1H-indole dihydrochloride] | 12.4 nM | 271 to 274.5 °C | 
Cl.Cl.O=S(=O)(c1ccc(F)cc1F)n1cc(Cl)c2cc(CN3CCNCC3)ccc21 [Compound 32, 1-(2,4-Difluorobenzenesulfonyl)-3-chloro-5-(piperazin-1-ylmethyl)-1H-indole dihydrochloride] |  | 241.5 to 246.1 °C | Ki (Human 5-HT6 Receptor): 5.77 nM
CN1CCN(Cc2ccc3c(c2)c(Cl)cn3S(=O)(=O)c2ccc(F)cc2F)CC1.Cl.Cl [Compound 26, 1-(2,4-Difluorobenzenesulfonyl)-3-chloro-5-(4-methylpiperazin-1-ylmethyl)-1H-indole dihydrochloride] | 3.36 nM | 251.85 to 253 °C | 
CN1CCN(Cc2ccc3c(ccn3S(=O)(=O)c3ccc(F)cc3)c2)CC1 [Compound 3, 1-(4-Fluorobenzenesulfonyl)-5-(4-methylpiperazin-1-ylmethyl)-1H-indole] | 14.6 nM |  | 
CC(C)c1ccc(S(=O)(=O)n2ccc3cc(CN4CCNCC4)ccc32)cc1.Cl.Cl [Compound 34, 1-[4-(1-Methylethyl)benzenesulfonyl]-5-(piperazin-1-ylmethyl)-1H-indole dihydrochloride] | 14.9 nM | 250 to 254 °C | 
Cl.Cl.O=S(=O)(c1ccccc1Br)n1ccc2cc(CN3CCNCC3)ccc21 [Compound 31, 1-(2-Bromobenzenesulfonyl)-5-(piperazin-1-ylmethyl)-1H-indole dihydrochloride] | 7.77 nM | 264.2 to 266.9 °C | 
CC(C)Oc1c(CN2CCN(C)CC2)ccc2c1ccn2S(=O)(=O)c1ccc(F)cc1 [Compound 28, 1-(4-Fluorobenznesulfonyl)-4-isopropoxy-5-(4-methylpiperazin-1-ylmethyl)-1H-indole] | 276 nM |  | 
CCN1CCN(Cc2ccc3c(ccn3S(=O)(=O)c3cccc(Cl)c3Cl)c2)CC1.Cl.Cl [Compound 14, 1-(2,3-Dichlorobenzenesulfonyl)-5-(4-ethylpiperazin-1-ylmethyl)-1H-indole dihydrochloride] | 5.52 nM | 273.5 to 277 °C | 
CN(C)CCC=C1c2ccccc2CCc2ccccc21 [amitriptyline] |  |  | affinity for the 5-HT6 receptor (5-HT6 receptor): high affinity

Reference: patent publication US8470830B2, “5-(heterocyclyl)alkyl-N-(arylsulfonyl)indole compounds and their use as 5-HT6 ligands” (Suven Life Sciences Limited, priority 2007, dated 2013)
